# Experimental data from ChEMBL document CHEMBL1201861, “Genomics of Drug Sensitity in Cancer screening data, Wellcome Trust Sanger Institute”.
# Experiments:
# NCI-H719 = test: cells; format: functional, cell-based; conditions: Homo sapiens;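 note: growth inhibition of the cultured cell line, read out with a viability assay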
# Description: SANGER: Inhibition of human NCI-H719 cell growth in a cell viability assay.
# CHP-126 = test: cells; format: functional, cell-based; conditions: Homo sapiens
# Description: SANGER: Inhibition of human CHP-126 cell growth in a cell viability assay.
# TT = test: cells; format: functional, cell-based; conditions: Homo sapiens
# Description: SANGER: Inhibition of human TT cell growth in a cell viability assay.
# Caov-3 cell line = test: cells; format: functional, cell-based; conditions: Homo sapiens;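 note: cell growth inhibition read out by a viability assay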
# Description: SANGER: Inhibition of human Caov-3 cell growth in a cell viability assay.
# COLO 205 = test: cells; format: functional, cell-based; conditions: Homo sapiens
# Description: SANGER: Inhibition of human COLO-205 cell growth in a cell viability assay.
# HCC1143 = test: cells; format: functional, cell-based; conditions: Homo sapiens;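 note: growth inhibition of human HCC1143 cells, read out with a cell viability assay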
# Description: SANGER: Inhibition of human HCC1143 cell growth in a cell viability assay.
# TUR = test: cells; format: functional, cell-based; conditions: Homo sapiens;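 note: growth inhibition of human TUR cells, read out with a cell viability assay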
# Description: SANGER: Inhibition of human TUR cell growth in a cell viability assay.
# P31-FUJ = test: cells; format: functional, cell-based; conditions: Homo sapiens;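 note: growth inhibition of P31-FUJ cells, read out with a viability assay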
# Description: SANGER: Inhibition of human P31-FUJ cell growth in a cell viability assay.
# NCI-H322M = test: cells; format: functional, cell-based; conditions: Homo sapiens;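 note: cell viability assay measuring inhibition of growth of human NCI-H322M cells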
# Description: SANGER: Inhibition of human NCI-H322M cell growth in a cell viability assay.
# NB1 = test: cells; format: functional, cell-based; conditions: Homo sapiens;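 note: reduction of NB1 cell proliferation, read out with a viability assay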
# Description: SANGER: Inhibition of human NB1 cell growth in a cell viability assay.
# EW-7 = test: SANGER: Inhibition of human EW-7 cell growth in a cell viability assay.; format: functional, cell-based; conditions: Homo sapiens, EW-7
# PLC-PRF-5 = test: cells; format: functional, cell-based; conditions: Homo sapiens;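 note: growth inhibition of human PLC-PRF-5 cells, read out with a viability assay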
# Description: SANGER: Inhibition of human PLC-PRF-5 cell growth in a cell viability assay.
# NCI-H1963 = test: cells; format: functional, cell-based; conditions: Homo sapiens;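 note: cell growth inhibition of the human line, determined with a cell viability assay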
# Description: SANGER: Inhibition of human NCI-H1963 cell growth in a cell viability assay.
# SIG-M5 = test: cells; format: functional, cell-based; conditions: Homo sapiens;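 note: cell viability assay read-out, measuring how strongly growth of cultured human SIG-M5 cells is inhibited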
# Description: SANGER: Inhibition of human SIG-M5 cell growth in a cell viability assay.
# NCI-H522 = test: cells; format: functional, cell-based, Homo sapiens; conditions: Homo sapiens, NCI-H522;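 note: cell viability assay measuring growth inhibition of human NCI-H522 cells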
# Description: SANGER: Inhibition of human NCI-H522 cell growth in a cell viability assay.
# HSC-4 = test: cells; format: functional, cell-based, Homo sapiens; conditions: Homo sapiens, HSC-4;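 note: growth inhibition of human HSC-4 cells, read out with a cell viability assay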
# Description: SANGER: Inhibition of human HSC-4 cell growth in a cell viability assay.
# NCI-H1734 = test: cells; format: functional, cell-based; conditions: Homo sapiens;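 note: growth inhibition of human NCI-H1734 cells, read out with a cell viability assay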
# Description: SANGER: Inhibition of human NCI-H1734 cell growth in a cell viability assay.
# Calu-1 = test: SANGER: Inhibition of human Calu-1 cell growth in a cell viability assay.; format: functional, cell-based
# NCI-H2009 = test: cells; format: functional, cell-based, Homo sapiens; conditions: Homo sapiens, NCI-H2009;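 note: cell viability assay measuring inhibition of NCI-H2009 cell growth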
# Description: SANGER: Inhibition of human NCI-H2009 cell growth in a cell viability assay.
# MES-SA = test: cells; format: functional, cell-based, Homo sapiens; conditions: Homo sapiens, MES-SA;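 note: growth inhibition of human MES-SA cells, read out with a cell viability assay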
# Description: SANGER: Inhibition of human MES-SA cell growth in a cell viability assay.
# RT-4 = test: SANGER: Inhibition of human RT4 cell growth in a cell viability assay.; format: functional, cell-based; conditions: Homo sapiens, RT-4
# NCI-H2196 = test: cells; format: functional, cell-based; conditions: Homo sapiens;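 note: cell viability assay used as the readout of growth inhibition in NCI-H2196 cells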
# Description: SANGER: Inhibition of human NCI-H2196 cell growth in a cell viability assay.
# BOKU = test: cells; format: functional, cell-based; conditions: Homo sapiens;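 note: growth inhibition of the human BOKU cell line, read out by a cell viability assay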
# Description: SANGER: Inhibition of human BOKU cell growth in a cell viability assay.
# NCI-H2171 = test: cells; format: functional, cell-based; conditions: Homo sapiens;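 note: growth inhibition of human NCI-H2171 cells, read out by a cell viability assay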
# Description: SANGER: Inhibition of human NCI-H2171 cell growth in a cell viability assay.
# NCI-H716 = test: cells; format: functional, cell-based; conditions: Homo sapiens;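 note: growth inhibition of human NCI-H716 cells, measured by a cell viability assay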
# Description: SANGER: Inhibition of human NCI-H716 cell growth in a cell viability assay.
# SCC-3 = test: cells; format: functional, cell-based; conditions: Homo sapiens;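 note: cell viability assay measuring inhibition of SCC-3 cell growth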
# Description: SANGER: Inhibition of human SCC-3 cell growth in a cell viability assay.
# MFE-296 = test: SANGER: Inhibition of human MFE-296 cell growth in a cell viability assay.; format: functional, cell-based
# RL95-2 = test: cells; format: functional, cell-based; conditions: Homo sapiens;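 note: RL95-2 growth inhibition determined through a cell viability readout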
# Description: SANGER: Inhibition of human RL95-2 cell growth in a cell viability assay.
# LC-1F = test: cells; format: functional, cell-based; conditions: Homo sapiens;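 note: growth inhibition of human LC-1F cells, read out with a cell viability assay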
# Description: SANGER: Inhibition of human LC-1F cell growth in a cell viability assay.
# EB2 = test: cells; format: functional, cell-based; conditions: Homo sapiens;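 note: growth inhibition of EB2 cells, read out with a cell viability assay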
# Description: SANGER: Inhibition of human EB2 cell growth in a cell viability assay.
# SR = test: cells; format: functional, cell-based; conditions: Homo sapiens
# Description: SANGER: Inhibition of human SR cell growth in a cell viability assay.
# SK-CO-1 = test: cells; format: functional, cell-based; conditions: Homo sapiens;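 note: growth inhibition of SK-CO-1 cells, determined by a viability readout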
# Description: SANGER: Inhibition of human SK-CO-1 cell growth in a cell viability assay.
# DV-90 = test: cells; format: functional, cell-based; conditions: Homo sapiens;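 note: Read-out is a viability assay, with IC50 reflecting the drop in DV-90 cell growth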
# Description: SANGER: Inhibition of human DV-90 cell growth in a cell viability assay.
# NCCIT = test: SANGER: Inhibition of human NCCIT cell growth in a cell viability assay.; format: functional, cell-based
# NCI-H187 = test: cells; format: functional, cell-based; conditions: Homo sapiens;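 note: growth inhibition of NCI-H187 cells, read out as cell viability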
# Description: SANGER: Inhibition of human NCI-H187 cell growth in a cell viability assay.
# SNU-475 = test: cells; format: functional, cell-based; conditions: Homo sapiens
# Description: SANGER: Inhibition of human SNU-475 cell growth in a cell viability assay.
# MONO-MAC-6 = test: cells; format: functional, cell-based; conditions: Homo sapiens;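 note: cell viability assay measuring growth inhibition of human MONO-MAC-6 cells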
# Description: SANGER: Inhibition of human MONO-MAC-6 cell growth in a cell viability assay.
# ARH-77 = test: cells; format: functional, cell-based; conditions: Homo sapiens;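 note: growth inhibition of ARH-77 cells, read out by a cell viability assay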
# Description: SANGER: Inhibition of human ARH-77 cell growth in a cell viability assay.
# NCI-H2227 = test: cells; format: functional, cell-based; conditions: Homo sapiens;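 note: growth inhibition of the human cell line, read out with a cell viability assay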
# Description: SANGER: Inhibition of human NCI-H2227 cell growth in a cell viability assay.
# MDA-MB-468 = test: cells; format: functional, cell-based; conditions: Homo sapiens
# Description: SANGER: Inhibition of human MDA-MB-468 cell growth in a cell viability assay.
# LC4-1 = test: cells; format: functional, cell-based; conditions: Homo sapiens;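 note: growth inhibition of LC4-1 cells, read out with a cell viability assay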
# Description: SANGER: Inhibition of human LC4-1 cell growth in a cell viability assay.
# SNG-M = test: cells; format: functional, cell-based; conditions: Homo sapiens
# Description: SANGER: Inhibition of human SNG-M cell growth in a cell viability assay.
# OPM-2 = test: cells; format: functional, cell-based; conditions: Homo sapiens;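 note: growth of OPM-2 cells measured with a viability assay, IC50 for suppression of proliferation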
# Description: SANGER: Inhibition of human OPM-2 cell growth in a cell viability assay.
# C-4-II = test: SANGER: Inhibition of human C-4-II cell growth in a cell viability assay.; format: functional, cell-based
# NCI-H1618 = test: cells; format: functional, cell-based; conditions: Homo sapiens;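 note: growth inhibition of human NCI-H1618 cells, measured by a cell viability assay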
# Description: SANGER: Inhibition of human NCI-H1618 cell growth in a cell viability assay.
# THP-1 = test: cells; format: functional, cell-based; conditions: Homo sapiens;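 note: growth inhibition of THP-1 cells, read out via a cell viability assay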
# Description: SANGER: Inhibition of human THP-1 cell growth in a cell viability assay.
# RPMI 8402 = test: SANGER: Inhibition of human RPMI-8402 cell growth in a cell viability assay.; format: functional, cell-based
structure (smiles),measurement,setting,value
CN(c1ncccc1CNc1nc(Nc2ccc3c(c2)CC(=O)N3)ncc1C(F)(F)F)S(C)(=O)=O [PF-00562271],IC50,NCI-H719,> 2.56 µM
same,IC50,CHP-126,> 2.56 µM
same,IC50,TT,> 2.56 µM
same,IC50,Caov-3 cell line,> 2.56 µM
same,IC50,COLO 205,0.487 µM
same,IC50,HCC1143,> 2.56 µM
same,IC50,TUR,> 2.56 µM
same,IC50,P31-FUJ,> 2.56 µM
same,IC50,NCI-H322M,> 2.56 µM
same,IC50,NB1,> 2.56 µM
same,IC50,EW-7,> 2.56 µM
same,IC50,PLC-PRF-5,> 2.56 µM
same,IC50,NCI-H1963,> 2.56 µM
same,IC50,SIG-M5,1.48 µM
same,IC50,NCI-H522,> 2.56 µM
same,IC50,HSC-4,> 2.56 µM
same,IC50,NCI-H1734,> 2.56 µM
same,IC50,Calu-1,> 2.56 µM
same,IC50,NCI-H2009,> 2.56 µM
same,IC50,MES-SA,1.31 µM
same,IC50,RT-4,> 2.56 µM
same,IC50,NCI-H2196,> 2.56 µM
same,IC50,BOKU,> 2.56 µM
same,IC50,NCI-H2171,> 2.56 µM
same,IC50,NCI-H716,> 2.56 µM
same,IC50,SCC-3,> 2.56 µM
same,IC50,MFE-296,2.48 µM
same,IC50,RL95-2,> 2.56 µM
same,IC50,LC-1F,> 2.56 µM
same,IC50,EB2,> 2.56 µM
same,IC50,SR,> 2.56 µM
same,IC50,SK-CO-1,> 2.56 µM
same,IC50,DV-90,> 2.56 µM
same,IC50,NCCIT,> 2.56 µM
same,IC50,NCI-H187,> 2.56 µM
same,IC50,SNU-475,> 2.56 µM
same,IC50,MONO-MAC-6,2.41 µM
same,IC50,ARH-77,> 2.56 µM
same,IC50,NCI-H2227,> 2.56 µM
same,IC50,MDA-MB-468,1.91 µM
same,IC50,LC4-1,> 2.56 µM
same,IC50,SNG-M,> 2.56 µM
same,IC50,OPM-2,> 2.56 µM
same,IC50,C-4-II,> 2.56 µM
same,IC50,NCI-H1618,> 2.56 µM
same,IC50,THP-1,> 2.56 µM
same,IC50,RPMI 8402,> 2.56 µM
COc1cc([C@@H]2c3cc4c(cc3[C@@H](O[C@@H]3O[C@@H]5CO[C@@H](C)O[C@H]5[C@H](O)[C@H]3O)[C@H]3COC(=O)[C@H]23)OCO4)cc(OC)c1O [ETOPOSIDE],IC50,NCI-H719,> 16 µM
same,IC50,CHP-126,6.27 µM
same,IC50,TT,> 16 µM
same,IC50,Caov-3 cell line,> 16 µM
same,IC50,COLO 205,0.265 µM
same,IC50,HCC1143,> 16 µM
same,IC50,TUR,0.722 µM
same,IC50,P31-FUJ,> 16 µM
same,IC50,NCI-H322M,> 16 µM
same,IC50,NB1,10.2 µM
same,IC50,EW-7,0.125 µM
same,IC50,PLC-PRF-5,> 16 µM
same,IC50,NCI-H1963,12.1 µM
same,IC50,SIG-M5,0.131 µM
same,IC50,NCI-H522,3.36 µM
same,IC50,HSC-4,1.26 µM
same,IC50,NCI-H1734,1.51 µM
same,IC50,Calu-1,7.89 µM
same,IC50,NCI-H2009,0.697 µM
same,IC50,MES-SA,0.458 µM
same,IC50,RT-4,> 16 µM
same,IC50,NCI-H2196,7.49 µM
same,IC50,BOKU,1.63 µM
same,IC50,NCI-H2171,> 16 µM
same,IC50,NCI-H716,> 16 µM
same,IC50,SCC-3,1.21 µM
same,IC50,MFE-296,0.763 µM
same,IC50,RL95-2,1.11 µM
same,IC50,LC-1F,> 16 µM
same,IC50,EB2,0.391 µM
same,IC50,SR,0.443 µM
same,IC50,SK-CO-1,1.63 µM
same,IC50,DV-90,> 16 µM
same,IC50,NCCIT,> 16 µM
same,IC50,NCI-H187,0.674 µM
same,IC50,SNU-475,> 16 µM
same,IC50,MONO-MAC-6,12.1 µM
same,IC50,ARH-77,2.19 µM
same,IC50,NCI-H2227,> 16 µM
same,IC50,MDA-MB-468,1.47 µM
same,IC50,LC4-1,3.23 µM
same,IC50,SNG-M,1.16 µM
same,IC50,OPM-2,> 16 µM
same,IC50,C-4-II,1.71 µM
same,IC50,NCI-H1618,> 16 µM
same,IC50,THP-1,> 16 µM
same,IC50,RPMI 8402,0.271 µM
CCC1=C[C@@H]2CN(C1)Cc1c([nH]c3ccccc13)[C@@](C(=O)OC)(c1cc3c(cc1OC)N(C)[C@H]1[C@@](O)(C(=O)OC)[C@H](OC(C)=O)[C@]4(CC)C=CCN5CC[C@]31[C@@H]54)C2 [VINORELBINE],IC50,NCI-H719,> 0.064 µM
same,IC50,CHP-126,> 0.064 µM
same,IC50,TT,> 0.064 µM
same,IC50,Caov-3 cell line,> 0.064 µM
same,IC50,COLO 205,0.00137 µM
same,IC50,HCC1143,> 0.064 µM
same,IC50,TUR,0.0072 µM
same,IC50,P31-FUJ,> 0.064 µM
same,IC50,NCI-H322M,> 0.064 µM
same,IC50,NB1,0.0261 µM
same,IC50,EW-7,0.0167 µM
same,IC50,PLC-PRF-5,> 0.064 µM
same,IC50,NCI-H1963,0.0303 µM
same,IC50,SIG-M5,0.00248 µM
same,IC50,NCI-H522,0.000535 µM
same,IC50,HSC-4,> 0.064 µM
same,IC50,NCI-H1734,0.0141 µM
same,IC50,Calu-1,> 0.064 µM
same,IC50,NCI-H2009,0.00846 µM
same,IC50,MES-SA,0.00311 µM
same,IC50,RT-4,> 0.064 µM
same,IC50,NCI-H2196,> 0.064 µM
same,IC50,BOKU,> 0.064 µM
same,IC50,NCI-H2171,> 0.064 µM
same,IC50,NCI-H716,> 0.064 µM
same,IC50,SCC-3,> 0.064 µM
same,IC50,MFE-296,0.00599 µM
same,IC50,RL95-2,0.00713 µM
same,IC50,LC-1F,0.0448 µM
same,IC50,EB2,0.0067 µM
same,IC50,SR,0.00584 µM
same,IC50,SK-CO-1,0.0085 µM
same,IC50,DV-90,0.0345 µM
same,IC50,NCCIT,0.00542 µM
same,IC50,NCI-H187,0.014 µM
same,IC50,SNU-475,> 0.064 µM
same,IC50,MONO-MAC-6,0.0206 µM
same,IC50,ARH-77,0.0178 µM
same,IC50,NCI-H2227,> 0.064 µM
same,IC50,MDA-MB-468,0.00714 µM
same,IC50,LC4-1,0.00719 µM
same,IC50,SNG-M,0.00388 µM
same,IC50,OPM-2,0.00627 µM
same,IC50,C-4-II,0.023 µM
same,IC50,NCI-H1618,> 0.064 µM
same,IC50,THP-1,> 0.064 µM
same,IC50,RPMI 8402,0.0123 µM
COC(=O)CNC(=O)C(=O)OC,IC50,NCI-H719,566 µM
same,IC50,CHP-126,3500 µM
same,IC50,TT,538 µM
same,IC50,Caov-3 cell line,1080 µM
same,IC50,COLO 205,> 4000 µM
same,IC50,HCC1143,> 4000 µM
same,IC50,TUR,171 µM
same,IC50,P31-FUJ,> 4000 µM
same,IC50,NCI-H322M,> 4000 µM
same,IC50,NB1,210 µM
same,IC50,EW-7,729 µM
same,IC50,PLC-PRF-5,1190 µM
same,IC50,NCI-H1963,1030 µM
same,IC50,SIG-M5,57.6 µM
same,IC50,NCI-H522,293 µM
same,IC50,HSC-4,414 µM
same,IC50,NCI-H1734,> 4000 µM
same,IC50,Calu-1,896 µM
same,IC50,NCI-H2009,296 µM
same,IC50,MES-SA,1070 µM
same,IC50,RT-4,649 µM
same,IC50,NCI-H2196,2960 µM
same,IC50,BOKU,177 µM
same,IC50,NCI-H2171,> 4000 µM
same,IC50,NCI-H716,1740 µM
same,IC50,SCC-3,1740 µM
same,IC50,MFE-296,318 µM
same,IC50,RL95-2,3590 µM
same,IC50,LC-1F,> 4000 µM
same,IC50,EB2,297 µM
same,IC50,SR,4.58 µM
same,IC50,SK-CO-1,> 4000 µM
same,IC50,DV-90,> 4000 µM
same,IC50,NCCIT,99.8 µM
same,IC50,NCI-H187,595 µM
same,IC50,SNU-475,2580 µM
same,IC50,MONO-MAC-6,202 µM
same,IC50,ARH-77,260 µM
same,IC50,NCI-H2227,3060 µM
same,IC50,MDA-MB-468,> 4000 µM
same,IC50,LC4-1,99.8 µM
same,IC50,SNG-M,> 4000 µM
same,IC50,OPM-2,28.8 µM
same,IC50,C-4-II,552 µM
same,IC50,NCI-H1618,> 4000 µM
same,IC50,THP-1,> 4000 µM
same,IC50,RPMI 8402,313 µM
